{
  "source": "ChEMBL document CHEMBL6127032",
  "about": "“Progress of ATM inhibitors: Opportunities and challenges” (Eur J Med Chem, 2024)",
  "key": {"[1]": {"tested_on": "U2OS", "assay": "cells", "conditions": "Homo sapiens"}, "[2]": {"target": "Serine/threonine-protein kinase mTOR (Homo sapiens, UniProt P42345)", "assay": "Inhibition of mTOR (unknown origin)"}, "[3]": {"target": "Serine/threonine-protein kinase ATR (Homo sapiens, UniProt Q13535)", "assay": "Inhibition of ATR (unknown origin)"}, "[4]": {"target": "T1, Serine-protein kinase ATM (Homo sapiens, UniProt Q13315)", "T1 sequence (Q13315 whole entry)": "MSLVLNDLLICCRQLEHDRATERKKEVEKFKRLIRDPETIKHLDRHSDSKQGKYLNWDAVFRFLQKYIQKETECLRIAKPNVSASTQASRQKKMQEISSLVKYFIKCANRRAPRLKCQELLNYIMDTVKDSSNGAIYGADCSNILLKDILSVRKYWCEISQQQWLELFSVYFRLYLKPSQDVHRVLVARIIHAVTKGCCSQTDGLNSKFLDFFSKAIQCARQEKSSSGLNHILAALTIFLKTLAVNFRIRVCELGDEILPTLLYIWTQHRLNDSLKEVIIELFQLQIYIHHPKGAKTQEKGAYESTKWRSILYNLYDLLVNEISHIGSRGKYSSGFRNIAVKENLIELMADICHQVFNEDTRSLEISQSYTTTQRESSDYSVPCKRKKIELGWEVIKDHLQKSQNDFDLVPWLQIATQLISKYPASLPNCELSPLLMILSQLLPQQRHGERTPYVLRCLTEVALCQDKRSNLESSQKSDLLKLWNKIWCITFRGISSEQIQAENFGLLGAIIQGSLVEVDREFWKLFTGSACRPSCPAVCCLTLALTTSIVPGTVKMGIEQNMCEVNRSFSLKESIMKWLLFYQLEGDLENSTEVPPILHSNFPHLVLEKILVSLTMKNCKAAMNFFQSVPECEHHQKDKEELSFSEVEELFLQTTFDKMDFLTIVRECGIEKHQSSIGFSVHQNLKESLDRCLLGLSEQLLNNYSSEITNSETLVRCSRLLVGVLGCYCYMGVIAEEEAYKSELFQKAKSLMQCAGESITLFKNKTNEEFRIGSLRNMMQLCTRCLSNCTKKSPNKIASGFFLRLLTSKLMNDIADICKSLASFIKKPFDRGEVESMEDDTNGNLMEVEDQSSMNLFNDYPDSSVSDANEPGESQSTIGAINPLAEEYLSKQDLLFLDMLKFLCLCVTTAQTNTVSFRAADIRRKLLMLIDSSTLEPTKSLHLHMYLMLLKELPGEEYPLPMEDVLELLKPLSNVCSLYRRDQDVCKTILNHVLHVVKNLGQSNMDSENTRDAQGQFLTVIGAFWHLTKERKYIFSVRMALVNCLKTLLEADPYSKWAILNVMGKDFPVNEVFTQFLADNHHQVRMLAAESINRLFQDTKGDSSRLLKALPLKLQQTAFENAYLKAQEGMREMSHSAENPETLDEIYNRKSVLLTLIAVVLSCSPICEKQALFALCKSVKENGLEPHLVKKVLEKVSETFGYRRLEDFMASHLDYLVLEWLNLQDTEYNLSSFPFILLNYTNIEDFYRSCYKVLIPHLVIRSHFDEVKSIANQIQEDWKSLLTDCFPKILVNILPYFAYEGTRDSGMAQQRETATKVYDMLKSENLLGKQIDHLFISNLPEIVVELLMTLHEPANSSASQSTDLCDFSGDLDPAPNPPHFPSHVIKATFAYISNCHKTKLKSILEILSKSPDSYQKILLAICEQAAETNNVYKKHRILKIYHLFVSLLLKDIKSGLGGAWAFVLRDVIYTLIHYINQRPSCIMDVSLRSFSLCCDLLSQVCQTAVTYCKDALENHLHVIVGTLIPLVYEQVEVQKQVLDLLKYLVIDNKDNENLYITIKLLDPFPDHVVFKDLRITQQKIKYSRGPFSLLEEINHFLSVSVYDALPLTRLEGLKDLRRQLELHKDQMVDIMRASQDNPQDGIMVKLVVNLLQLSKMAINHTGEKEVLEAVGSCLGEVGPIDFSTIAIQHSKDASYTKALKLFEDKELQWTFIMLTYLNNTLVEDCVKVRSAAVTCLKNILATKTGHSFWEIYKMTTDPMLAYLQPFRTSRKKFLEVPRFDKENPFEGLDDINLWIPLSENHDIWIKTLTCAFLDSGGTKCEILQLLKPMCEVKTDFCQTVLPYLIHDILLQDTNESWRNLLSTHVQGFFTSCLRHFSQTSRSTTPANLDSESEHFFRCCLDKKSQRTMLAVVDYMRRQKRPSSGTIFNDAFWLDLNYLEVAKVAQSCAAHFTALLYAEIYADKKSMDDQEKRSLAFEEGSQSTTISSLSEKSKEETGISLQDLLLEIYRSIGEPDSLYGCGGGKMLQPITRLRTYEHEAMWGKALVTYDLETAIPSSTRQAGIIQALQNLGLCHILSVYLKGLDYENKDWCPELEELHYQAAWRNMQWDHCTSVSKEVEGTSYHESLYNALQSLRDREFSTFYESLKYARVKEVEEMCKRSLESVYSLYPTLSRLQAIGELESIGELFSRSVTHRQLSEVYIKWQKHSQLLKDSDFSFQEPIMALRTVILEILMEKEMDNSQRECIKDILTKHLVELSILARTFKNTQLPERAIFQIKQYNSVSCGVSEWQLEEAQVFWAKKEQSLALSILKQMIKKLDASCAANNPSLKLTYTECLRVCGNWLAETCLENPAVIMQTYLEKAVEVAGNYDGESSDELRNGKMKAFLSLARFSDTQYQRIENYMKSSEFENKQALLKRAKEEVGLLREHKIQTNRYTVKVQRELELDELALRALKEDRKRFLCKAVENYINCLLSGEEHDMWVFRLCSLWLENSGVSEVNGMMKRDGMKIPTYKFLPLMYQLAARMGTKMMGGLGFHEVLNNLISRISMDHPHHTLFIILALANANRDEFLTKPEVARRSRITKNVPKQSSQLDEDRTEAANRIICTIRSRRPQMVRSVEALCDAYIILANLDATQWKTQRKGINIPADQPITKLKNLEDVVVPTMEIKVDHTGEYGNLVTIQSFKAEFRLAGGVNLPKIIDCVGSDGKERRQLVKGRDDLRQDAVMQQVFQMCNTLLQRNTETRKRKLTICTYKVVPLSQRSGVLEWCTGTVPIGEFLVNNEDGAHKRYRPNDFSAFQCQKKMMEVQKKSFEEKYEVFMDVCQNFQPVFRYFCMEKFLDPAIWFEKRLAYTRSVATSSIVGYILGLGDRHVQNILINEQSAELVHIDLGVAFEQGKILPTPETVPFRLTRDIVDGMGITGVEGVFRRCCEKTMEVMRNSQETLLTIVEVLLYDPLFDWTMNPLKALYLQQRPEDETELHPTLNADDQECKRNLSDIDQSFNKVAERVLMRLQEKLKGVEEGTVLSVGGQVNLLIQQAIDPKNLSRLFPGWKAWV", "assay": "Inhibition of ATM in human HeLa cells", "type": "cell-based"}, "[5]": {"assay": "Inhibition of PI3K (unknown origin)", "design": "species or system Homo sapiens"}, "[6]": {"assay": "Inhibition of DNA-PK (unknown origin)", "design": "species or system Homo sapiens"}, "[7]": {"assay": "Inhibition of PI4K (unknown origin)", "design": "species or system Homo sapiens"}, "[8]": {"assay": "Solubility of compound in PBS buffer", "type": "physicochemical"}, "[9]": {"assay": "Oral bioavailability in human", "type": "ADME, organism-based", "conditions": "in vivo"}, "[10]": {"target": "T1, Serine-protein kinase ATM", "assay": "Inhibition of ATM (unknown origin)"}},
  "data": [
    {"smiles": "O=c1cc(N2CCOCC2)cc(N2CCCCC[C@@H]2Cc2ccccc2)[nH]1", "values": [
      {"measurement": "IC50", "setting": "[1]", "result": 230, "unit": "nM"}
    ]},
    {"smiles": "CN1CCN(CCC(=O)Nc2ccc3c(c2)Sc2cccc(-c4cc(=O)cc(N5CCOCC5)o4)c2S3)CC1", "values": [
      {"measurement": "IC50", "setting": "[2]", "result": "> 10000", "unit": "nM"},
      {"measurement": "IC50", "setting": "[3]", "result": "> 100000", "unit": "nM"},
      {"measurement": "IC50", "setting": "[4]", "result": 13, "unit": "nM"},
      {"measurement": "IC50", "setting": "[5]", "result": 10000, "unit": "nM"},
      {"measurement": "IC50", "setting": "[6]", "result": 9100, "unit": "nM"},
      {"measurement": "IC50", "setting": "[7]", "result": "> 100000", "unit": "nM"}
    ]},
    {"smiles": "COc1cc2ncc3c(c2cc1-c1cn(C)nc1C)n(-c1c(F)cncc1OC)c(=O)n3C", "note": "[LARTESERTIB]", "values": [
      {"measurement": "solubility", "setting": "[8]", "result": 93, "unit": "µg/mL"},
      {"measurement": "IC50", "setting": "[6]", "result": 600, "unit": "nM"}
    ]},
    {"smiles": "C[C@@H]1CN(CC(=O)Nc2ccc3c(c2)Cc2cccc(-c4cc(=O)cc(N5CCOCC5)o4)c2S3)C[C@H](C)O1", "values": [
      {"measurement": "bioavailability", "setting": "[9]", "result": 37, "unit": "%"}
    ]},
    {"smiles": "CC(C)n1c(=O)n(C)c2cnc3cc(F)c(-c4ccc(OCCCN5CCCCC5)nc4)cc3c21", "note": "[AZD-1390]", "values": [
      {"measurement": "IC50", "setting": "[10]", "result": 7.8, "unit": "nM"}
    ]}
  ]
}
